Target: T1, wild-type (WT) P450 BM3 heme domain (Priestia megaterium, UniProt P14779)
T1 sequence (P14779 1-464 limits assumed): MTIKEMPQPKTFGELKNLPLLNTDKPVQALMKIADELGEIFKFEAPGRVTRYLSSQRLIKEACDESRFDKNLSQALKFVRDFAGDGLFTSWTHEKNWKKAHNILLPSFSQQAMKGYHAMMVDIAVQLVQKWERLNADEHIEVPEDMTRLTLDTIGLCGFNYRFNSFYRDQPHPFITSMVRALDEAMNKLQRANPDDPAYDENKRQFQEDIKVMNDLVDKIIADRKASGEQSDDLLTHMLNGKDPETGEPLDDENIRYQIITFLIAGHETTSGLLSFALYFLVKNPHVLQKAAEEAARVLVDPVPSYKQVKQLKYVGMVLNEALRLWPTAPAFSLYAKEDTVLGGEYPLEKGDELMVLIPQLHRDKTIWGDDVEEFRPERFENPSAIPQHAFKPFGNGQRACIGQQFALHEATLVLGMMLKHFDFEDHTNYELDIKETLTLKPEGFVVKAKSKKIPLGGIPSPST
Assay: optical titration, type-I difference spectra
Assay type: binding

Kd: 280 ± 25 µM
SMILES: CCCCCCCCCCCC(=O)O [LA, lauric acid]

From paper PMC3486690 (Journal of inorganic biochemistry, 2012)
